The test system of one assay is H9 hESCs. Briefly: Expansion of hESCs in stirred suspension bioreactors. The assay is classed as cell-based, human. As for the experimental part: Bioreactor Maintenance of hESCs. H9 cells passaged in static on Matrigel™ or using feeder layers were pre-treated for 1 hr with 10 μM Y-27632 (Sigma), then dissociated as described earlier. The hESCs were then inoculated into 125 ml bioreactors (NDS Technologies) at 1.8×10^4 cells/ml. The bioreactors contained 100 ml of mTeSR medium supplemented with 10 μM Y-27632 and 0.1 nM Rapamycin (Sigma), were agitated at 100 rpm and were incubated under standard conditions (37° C., 5% CO2, saturated humidity). After 24 hrs in suspension culture, the Y-27632 was removed and replaced with mTeSR medium containing 0.1 nM Rapamycin. […] The single cell suspension of hESCs was split 1:5 and inoculated into a new bioreactor containing 100 ml of mTeSR medium supplemented with 10 μM Y-27632 and 0.1 nM Rapamycin for 24 hrs.
In the bioreactor systems, hESCs (collected from static cultures containing Matrigel™ or human foreskin fibroblast feeder (HFF) cells) were inoculated at 1.8×10^4 cells/ml into 100 ml of mTeSR medium (Stemcell Technologies Inc.) and agitated at 100 rpm.

The next assay concerns hESCs. Conditions: cited from earlier work.

On to `C[C@@H](N)[C@H]1CC[C@H](C(=O)Nc2ccncc2)CC1` [Y-27632], for which the hESC aggregate formation entry in the assay on H9 hESCs (10 μM ROCK inhibitor and 0.1 nM Rapamycin together, 1.8×10^4 cells/ml, mTeSR, 100 rpm) is recorded as “form tight aggregates”. The “hESC aggregate formation when the inhibitor is left out” value in the assay on H9 hESCs (ROCK inhibitor excluded from bioreactor cultures, by day 5, data not shown) is “noticeably fewer aggregates were observed and mainly single cells were observed by day 5”. For the same compound, the “lag phase of the cultures” value in the assay on H9 hESCs (exposure to ROCK inhibitor decreased from 4 days to 24 hrs) is recorded as “substantial decrease in the lag phase”. Besides, the overall expansion with H9 hESCs (non-passaged cultures, ROCK inhibitor day 0 to day 4, collagenase every 5 days, over 20 days) is given as 67 fold. Besides, the “survival rate of dissociated, single hESCs” value in the assay with hESCs was “increases the survival rate”.

The record behind these values is US20110263016A1, “Expansion of Embryonic Stem Cells” (priority 2008, published 2011).
